Data: patent publication US8163269B2, “Bioactive stents for type II diabetics and methods for use thereof” (priority 2004, dated 2012)
No end group written: not given here.

What was measured:
ECs = experiment: adhesion assay with peptides conjugated to PEA polymer; format: cell-based, Human; parameters: key to adhesion assay microscopic observation, cell shape: r = round; s = spindly; sp = spread; conditions: for adhesion relative to basal levels: assays 1 and 2; for ability of peptide to bind to cells after conjugation / adhesion of ECs compared to SMCs on conjugated peptide versus unconjugated PEA-H polymer: peptide conjugated to PEA-H polymer
Protocol: (§1) The attachment factor, in a phosphate buffered saline (PBS) solution, was coated onto a non-tissue culture dish and allowed to adsorb overnight at 4° C. The following day the plate was blocked for 1 hour at room temperature with heat-inactivated, 0.2% bovine serum albumin (BSA) solution (in PBS) to prevent non-specific attachment. A timed adhesion assay was then conducted. The assay includes negative control wells coated only with PBS and positive control wells coated with fibronectin. So far, none of the adhesion factors tested has surpassed the cell adhesion and cell spreading induced by fibronectin. In addition to adhesion, spreading is also an important consideration in determining the suitability of a substrate. If the cells are not able to spread, it is unlikely that the cells will proliferate on that surface.
The first conjugation was done to the PEA-H version of the polymer (acid) since this polymer has suitable sites for conjugation. The peptides can be covalently bound to this polymer via a wide variety of suitable functional groups. For example, when the biodegradable polymer is a poly(ester amide) (PEA) containing Lysine residues, the carboxyl groups from the Lysine residues can be used to react with a complementary moiety on the peptide, such as an hydroxy, amino, thio moiety, and the like (5). Specifically, the PEA-H polymer with free COOH reacts with water soluble carbodiimide (WSC) and N-Hydroxysuccinimide (HOSu) to produce an activated ester, which, in turn, reacts with an amino functional group of a peptide to provide an amide linkage (FIG. 6B). By using a fluorescent dansyl-lysine (FIG. 5), the optimal reaction conditions for activation and conjugation were determined (FIG. 6A).
The conjugation of CS5 and GREDVDY peptides to the polymer was then performed using the same protocol (FIG. 6B).
A similar protocol (see flow chart FIG. 6B) was used to conjugate combinations of the acid polymer with PEA polymer of structure (I) containing acetylated ends and benzylated COOH groups, (PEA-AcBz) and PEA-TEMPO (50/50 and 10/90), respectively. By combining the conjugatable acid form with the other polymers, a determination could be made whether the presence of the recruitment peptide on the polymer conferred an advantage in EC recruitment.
Microscopic observations taken at 2 h, 4 h and 6 h from duplicate wells from two representative adhesion assays are summarized in Table 2 below.

[1] = test system: endothelial cells (ECs), HCAEC=Human Coronary Artery Endothelial Cells; experiment: in vitro adhesion assay, attachment factor adsorbed onto non-tissue culture dish; format: cell-based; conditions: for specificity of cell adhesion, ECs over SMCs: HCAEC versus HASMC, adsorbed peptide; for adhesion data among bioligands tested / cell adhesion and cell spreading compared with fibronectin positive control: adsorbed attachment factor
Source text: Cell Recruitment to Bioactive Agents To select appropriate bioligands for use as recruitment factors in stent applications, an in vitro adhesion assay was developed. This assay can distinguish between endothelial cells (ECs) and smooth muscle cells (SMCs) to aid in selecting potential attachment factors. Both the ECs and SMCs used in these assays were purchased from Cambrex (Baltimore, Md.) (HASMC=Human Aortic Smooth Muscle Cells and HCAEC=Human Coronary Artery Endothelial Cells).
as §1
In addition to microscopic observations, cell adhesion was quantitated using an ATP assay. Data of a representative adhesion assay quantitation by ATP standard curve is shown in the graph in FIG. 4, which illustrates the comparative results obtained at 2, 4 and 6 hours into the assay. […] The cell spreading determined in microscopic observations may indicate that cell spreading can increase the overall degree of cell adhesion since more space is occupied by a well spread cell than by an adhered cell that has not spread on the surface, due to timing of data points or appropriateness of the substrate used. The ATP data are useful to support the observational findings of the adhesion assay but cannot replace the adhesion assay.

[2] = 2 h, 10/90 H/Bz (10% PEA-H and 90% PEA-Ac-Bz), Assay 1
[3] = 2 h, 10/90 H/Bz (10% PEA-H and 90% PEA-Ac-Bz), Assay 2
[4] = 2 h, 10/90 H/T (10% PEA-H and 90% PEA-Ac-TEMPO), Assay 1
[5] = 2 h, 10/90 H/T (10% PEA-H and 90% PEA-Ac-TEMPO), Assay 2
[6] = 2 h, 50/50 H/Bz (50% PEA-H and 50% PEA-Ac-Bz), Assay 1
[7] = 2 h, 50/50 H/Bz (50% PEA-H and 50% PEA-Ac-Bz), Assay 2
[8] = 2 h, 50/50 H/T (50% PEA-H and 50% PEA-Ac-TEMPO), Assay 1
[9] = 2 h, 50/50 H/T (50% PEA-H and 50% PEA-Ac-TEMPO), Assay 2
[10] = 4 h, 10/90 H/Bz (10% PEA-H and 90% PEA-Ac-Bz), Assay 1
[11] = 4 h, 10/90 H/Bz (10% PEA-H and 90% PEA-Ac-Bz), Assay 2
[12] = 4 h, 10/90 H/T (10% PEA-H and 90% PEA-Ac-TEMPO), Assay 1
[13] = 4 h, 10/90 H/T (10% PEA-H and 90% PEA-Ac-TEMPO), Assay 2
[14] = 4 h, 50/50 H/Bz (50% PEA-H and 50% PEA-Ac-Bz), Assay 1
[15] = 4 h, 50/50 H/Bz (50% PEA-H and 50% PEA-Ac-Bz), Assay 2
[16] = 4 h, 50/50 H/T (50% PEA-H and 50% PEA-Ac-TEMPO), Assay 1
[17] = 4 h, 50/50 H/T (50% PEA-H and 50% PEA-Ac-TEMPO), Assay 2
[18] = 6 h, 10/90 H/Bz (10% PEA-H and 90% PEA-Ac-Bz), Assay 1
[19] = 6 h, 10/90 H/Bz (10% PEA-H and 90% PEA-Ac-Bz), Assay 2
[20] = 6 h, 10/90 H/T (10% PEA-H and 90% PEA-Ac-TEMPO), Assay 1
[21] = 6 h, 10/90 H/T (10% PEA-H and 90% PEA-Ac-TEMPO), Assay 2
[22] = 6 h, 50/50 H/Bz (50% PEA-H and 50% PEA-Ac-Bz), Assay 1
[23] = 6 h, 50/50 H/Bz (50% PEA-H and 50% PEA-Ac-Bz), Assay 2
[24] = 6 h, 50/50 H/T (50% PEA-H and 50% PEA-Ac-TEMPO), Assay 1
[25] = 6 h, 50/50 H/T (50% PEA-H and 50% PEA-Ac-TEMPO), Assay 2

Substance: Conj CS5: CS5 peptide (SEQ ID NO:1) conjugated to PEA-H mixed with PEA-Ac-Bz or PEA-Ac-TEMPO polymer coating (GEEIQIGHIPREDVDYHLYP; also: conjugated to PEA polymer coating)
- adhesion assay microscopic observation, % (ECs; [2]): 30%
- adhesion assay microscopic observation, cell shape (ECs; [2]): r/s
- adhesion assay microscopic observation, % (ECs; [3]): 30%
- adhesion assay microscopic observation, cell shape (ECs; [3]): r/s
- adhesion assay microscopic observation, % (ECs; [4]): 30%
- adhesion assay microscopic observation, cell shape (ECs; [4]): r/s
- adhesion assay microscopic observation, % (ECs; [5]): 30%
- adhesion assay microscopic observation, cell shape (ECs; [5]): r/s/sp
- adhesion assay microscopic observation, % (ECs; [6]): 20%
- adhesion assay microscopic observation, cell shape (ECs; [6]): r
- adhesion assay microscopic observation, % (ECs; [7]): 20-30%
- adhesion assay microscopic observation, cell shape (ECs; [7]): r
- adhesion assay microscopic observation, % (ECs; [8]): 20-30%
- adhesion assay microscopic observation, cell shape (ECs; [8]): r/s
- adhesion assay microscopic observation, % (ECs; [9]): 30%
- adhesion assay microscopic observation, cell shape (ECs; [9]): r/s
- adhesion assay microscopic observation, % (ECs; [10]): 40%
- adhesion assay microscopic observation, cell shape (ECs; [10]): r/sp
- adhesion assay microscopic observation, % (ECs; [11]): 30%
- adhesion assay microscopic observation, cell shape (ECs; [11]): s/sp
- adhesion assay microscopic observation, % (ECs; [12]): 30%
- adhesion assay microscopic observation, cell shape (ECs; [12]): r/s/sp
- adhesion assay microscopic observation, % (ECs; [13]): 30-40%
- adhesion assay microscopic observation, cell shape (ECs; [13]): s/sp
- adhesion assay microscopic observation, % (ECs; [14]): 30%
- adhesion assay microscopic observation, cell shape (ECs; [14]): r
- adhesion assay microscopic observation, % (ECs; [15]): 30%
- adhesion assay microscopic observation, cell shape (ECs; [15]): r/s/sp
- adhesion assay microscopic observation, % (ECs; [16]): 30%
- adhesion assay microscopic observation, cell shape (ECs; [16]): r
- adhesion assay microscopic observation, % (ECs; [17]): 30-40%
- adhesion assay microscopic observation, cell shape (ECs; [17]): r/s/sp
- adhesion assay microscopic observation, % (ECs; [18]): 30-40%
- adhesion assay microscopic observation, cell shape (ECs; [18]): s/sp
- adhesion assay microscopic observation, % (ECs; [19]): 30%
- adhesion assay microscopic observation, cell shape (ECs; [19]): r/s/sp
- adhesion assay microscopic observation, % (ECs; [20]): 30-40%
- adhesion assay microscopic observation, cell shape (ECs; [20]): r/s/sp
- adhesion assay microscopic observation, % (ECs; [21]): 30%
- adhesion assay microscopic observation, cell shape (ECs; [21]): r/s/sp
- adhesion assay microscopic observation, % (ECs; [22]): 20%
- adhesion assay microscopic observation, cell shape (ECs; [22]): r
- adhesion assay microscopic observation, % (ECs; [23]): 30%
- adhesion assay microscopic observation, cell shape (ECs; [23]): r/s
- adhesion assay microscopic observation, % (ECs; [24]): 20%
- adhesion assay microscopic observation, cell shape (ECs; [24]): r
- adhesion assay microscopic observation, % (ECs; [25]): 30%
- adhesion assay microscopic observation, cell shape (ECs; [25]): r/s

Substance: Conj REDV: GREDVDY peptide (SEQ ID NO:11) conjugated to PEA-H mixed with PEA-Ac-Bz or PEA-Ac-TEMPO polymer coating (also: conjugated to PEA polymer coating)
- adhesion assay microscopic observation, % (ECs; [2]): 30%
- adhesion assay microscopic observation, cell shape (ECs; [2]): r/s
- adhesion assay microscopic observation, % (ECs; [3]): 30%
- adhesion assay microscopic observation, cell shape (ECs; [3]): r/s/sp
- adhesion assay microscopic observation, % (ECs; [4]): 30%
- adhesion assay microscopic observation, cell shape (ECs; [4]): r/s
- adhesion assay microscopic observation, % (ECs; [5]): 30%
- adhesion assay microscopic observation, cell shape (ECs; [5]): r/s/sp
- adhesion assay microscopic observation, % (ECs; [6]): 20-30%
- adhesion assay microscopic observation, cell shape (ECs; [6]): r
- adhesion assay microscopic observation, % (ECs; [7]): 30-40%
- adhesion assay microscopic observation, cell shape (ECs; [7]): r/s/sp
- adhesion assay microscopic observation, % (ECs; [8]): 20-30%
- adhesion assay microscopic observation, cell shape (ECs; [8]): r
- adhesion assay microscopic observation, % (ECs; [9]): 30%
- adhesion assay microscopic observation, cell shape (ECs; [9]): r/s/sp
- adhesion assay microscopic observation, % (ECs; [10]): 30-40%
- adhesion assay microscopic observation, cell shape (ECs; [10]): r/s/sp
- adhesion assay microscopic observation, % (ECs; [11]): 30-40%
- adhesion assay microscopic observation, cell shape (ECs; [11]): s/sp
- adhesion assay microscopic observation, % (ECs; [12]): 30-40%
- adhesion assay microscopic observation, cell shape (ECs; [12]): s/sp
- adhesion assay microscopic observation, % (ECs; [13]): 40%
- adhesion assay microscopic observation, cell shape (ECs; [13]): s/sp
- adhesion assay microscopic observation, % (ECs; [14]): 30%
- adhesion assay microscopic observation, cell shape (ECs; [14]): s/sp
- adhesion assay microscopic observation, % (ECs; [15]): 30-40%
- adhesion assay microscopic observation, cell shape (ECs; [15]): s/sp
- adhesion assay microscopic observation, % (ECs; [16]): 30%
- adhesion assay microscopic observation, % (ECs; [17]): 30%
- adhesion assay microscopic observation, cell shape (ECs; [17]): r/s/sp
- adhesion assay microscopic observation, % (ECs; [18]): 30%
- adhesion assay microscopic observation, cell shape (ECs; [18]): s/sp
- adhesion assay microscopic observation, % (ECs; [19]): 30-40%
- adhesion assay microscopic observation, cell shape (ECs; [19]): r/s/sp
- adhesion assay microscopic observation, % (ECs; [20]): 30-40%
- adhesion assay microscopic observation, cell shape (ECs; [20]): r/s/sp
- adhesion assay microscopic observation, % (ECs; [21]): 40%
- adhesion assay microscopic observation, cell shape (ECs; [21]): s/sp
- adhesion assay microscopic observation, % (ECs; [22]): 30%
- adhesion assay microscopic observation, cell shape (ECs; [22]): r/s
- adhesion assay microscopic observation, % (ECs; [23]): 30-40%
- adhesion assay microscopic observation, cell shape (ECs; [23]): r/s/sp
- adhesion assay microscopic observation, % (ECs; [24]): 20%
- adhesion assay microscopic observation, cell shape (ECs; [24]): r
- adhesion assay microscopic observation, % (ECs; [25]): 30-40%
- adhesion assay microscopic observation, cell shape (ECs; [25]): s/sp

Substance: GREDVDY
- specificity of cell adhesion, ECs over SMCs [1]: showed specificity for ECs over SMCs
- adhesion data among bioligands tested [1]: gave the most promising adhesion data
- cell adhesion and cell spreading compared with fibronectin positive control [1]: neither of these peptide sequences equaled the large molecule fibronectin in cell adhesion or spreading
- adhesion relative to basal levels (ECs; 10/90 PEA-H/PEA-TEMPO (H/T) conjugated to peptide): increased adhesion over basal levels
- adhesion relative to basal levels (ECs; 50/50 PEA-H/PEA-Ac-Bz (H/Bz) conjugated to peptide): increased adhesion over basal levels
- cell recruitment, complete evaluation of assays with conjugated peptides on polymer (ECs; Table 2 assays): more robust in cell recruitment than the longer (20 mer) CS5 peptide
- ability of peptide to bind to cells after conjugation (ECs): did not alter their ability to bind to cells
- adhesion of ECs compared to SMCs on conjugated peptide versus unconjugated PEA-H polymer (ECs): adhered significantly better to the conjugated peptides than on the unconjugated PEA-H polymer

Substance: GEEIQIGHIPREDVDYHLYP [CS5]
- specificity of cell adhesion, ECs over SMCs [1]: showed specificity for ECs over SMCs
- adhesion data among bioligands tested [1]: gave the most promising adhesion data
- cell adhesion and cell spreading compared with fibronectin positive control [1]: neither of these peptide sequences equaled the large molecule fibronectin in cell adhesion or spreading
- ability of peptide to bind to cells after conjugation (ECs): did not alter their ability to bind to cells
- adhesion of ECs compared to SMCs on conjugated peptide versus unconjugated PEA-H polymer (ECs): adhered significantly better to the conjugated peptides than on the unconjugated PEA-H polymer
